In article PMC5651844, “YEATS2 links histone acetylation to tumorigenesis of non-small cell lung cancer” (Nature Communications, 2017):
Where “and” joins values, the source holds several entries; their conditions need not be identical. Identical values can stand only once. Entries after “also recorded” stand apart in the source; their conditions may differ. Ends that are not written are not given here.

Columns and labels:
[1] = target: AF9 YEATS domain; details: ref Li et al., 2014; cited from earlier work
[2] = target: ENL YEATS domain; details: ref Wan et al., 2017; cited from earlier work
[3] = tested on: GST-YEATS2 YEATS domain; experiment: Histone peptide pulldown, western blot; assay type: binding, human; details: 1 µg biotinylated peptide, 1–2 µg GST-fused protein, 4 °C overnight, streptavidin beads
Procedure: An aliquot of 1 µg of biotinylated histone peptides with different modifications were incubated with 1–2 µg of GST-fused proteins in binding buffer (50 mM Tris-HCl 7.5, 250 mM NaCl, 0.1% NP-40, 1 mM phenylmethyl sulphonyl fluoride (PMSF)) at 4 °C overnight. Streptavidin beads (Amersham) were added to the mixture, and the mixture was incubated for 1 h with rotation. The beads were then washed three times and analyzed using SDS-PAGE and western blotting. For GST pulldown, 2 µg protein were incubated with 10 µg of calf thymus total histones (Worthington) in binding buffer (50 mM Tris-HCl 7.5, 1 M NaCl, 1% NP-40, 0.5 mM EDTA, 1 mM PMSF plus protease inhibitors (Roche)) at 4 °C overnight, followed by an additional 1 h Glutathione Sepharose beads (Amersham) incubation. The beads were then washed five times and analyzed using SDS-PAGE and western blotting.

[4] = tested on: 15N-labeled YEATS domain of YEATS2 (aa 201–350); experiment: NMR titration, 1H,15N HSQC; assay type: binding, human; details: 0.1 mM 15N-labeled YEATS domain, 1× PBS pH 6.8, 100 mM KCl, 298 K, increasing peptide (H3K27ac21–31 or H3K9ac1–12)
Procedure: The YEATS2 domain encompassing residues 201–332 of human YEATS2 was cloned into a pSUMOH10 vector (an in house modified vector based on pET28b) containing an N-terminal 10×His-SUMO tag. The recombinant YEATS2_201–332 was overexpressed in Escherichia coli BL21 (DE3). After overnight induction by 0.4 mM isopropyl β-D-thiogalactoside at 16 °C in TB medium, cells were collected and suspended in buffer: 20 mM Tris, pH 7.5, 0.5 M sodium citrate, 5% glycerol, 1 mM phenylmethylsulfonyl fluoride, and 20 mM imidazole. After cell lysis and centrifugation, the recombinant protein was purified to homogeneity over HisTrap, and the 10xHis-SUMO tag was cleaved by ULP1 overnight at 4 °C then removed by reloaded onto the HisTrap column. The free YEATS2_201–332 protein was finally polished by size-exclusion chromatography on a Superdex G75 column (GE Healthcare) in elution buffer: 20 mM Tris, pH 7.5, 0.5 M sodium citrate, 5% glycerol, and 2 mM β-mercaptoethanol. All YEATS2_201–332 mutants were purified in essentially the same procedures as the wild-type protein. All mutant proteins were expressed and purified essentially the same as WT YEATS2 YEATS. For NMR titrations, the YEATS domain (aa 201–350) of YEATS2 was expressed in BL21(DE3) RIL cells as a GST-fusion protein in minimal media supplemented with ^15NH4Cl (Sigma). […]

[5] = target: T1, YEATS2 YEATS domain (aa 201–332), wild type (Homo sapiens, UniProt Q9ULM3); experiment: Isothermal titration calorimetry (ITC), wild-type YEATS domain; assay type: binding; details: for binding in ITC, in words: WT YEATS2 YEATS domain
T1 construct: encompassing residues 201–332 of human YEATS2; 10×His-SUMO (N, cleaved yes); made in house; host or cells: Escherichia coli BL21 (DE3)
T1 sequence (Q9ULM3 201-332): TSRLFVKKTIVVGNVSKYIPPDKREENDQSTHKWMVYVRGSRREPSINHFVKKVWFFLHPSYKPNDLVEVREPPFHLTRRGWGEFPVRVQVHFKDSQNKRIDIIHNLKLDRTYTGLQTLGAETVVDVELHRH
Procedure: The YEATS2 domain encompassing residues 201–332 of human YEATS2 was cloned into a pSUMOH10 vector (an in house modified vector based on pET28b) containing an N-terminal 10×His-SUMO tag. The recombinant YEATS2_201–332 was overexpressed in Escherichia coli BL21 (DE3). After overnight induction by 0.4 mM isopropyl β-D-thiogalactoside at 16 °C in TB medium, cells were collected and suspended in buffer: 20 mM Tris, pH 7.5, 0.5 M sodium citrate, 5% glycerol, 1 mM phenylmethylsulfonyl fluoride, and 20 mM imidazole. After cell lysis and centrifugation, the recombinant protein was purified to homogeneity over HisTrap, and the 10xHis-SUMO tag was cleaved by ULP1 overnight at 4 °C then removed by reloaded onto the HisTrap column. The free YEATS2_201–332 protein was finally polished by size-exclusion chromatography on a Superdex G75 column (GE Healthcare) in elution buffer: 20 mM Tris, pH 7.5, 0.5 M sodium citrate, 5% glycerol, and 2 mM β-mercaptoethanol. All YEATS2_201–332 mutants were purified in essentially the same procedures as the wild-type protein. All mutant proteins were expressed and purified essentially the same as WT YEATS2 YEATS. […] Cells were pelleted via centrifugation, flash-frozen in liquid nitrogen, and lysed by sonication. Cell lysate was centrifuged, and the supernatant was incubated with glutathione Sepharose 4B beads (GE Healthcare). The GST tag was cleaved with Prescission protease.
All calorimetric experiments of the wild type or mutant YEATS domain proteins were conducted at 15 °C using a MicroCal iTC200 instrument (GE Healthcare). The YEATS2_201–332 samples were dialyzed in the following buffer: 20 mM Tris 7.5, 0.5 M sodium citrate, 5% glycerol, and 2 mM β-mercaptoethanol. Protein concentration was determined by absorbance spectroscopy at 280 nm. Peptides (>95% purity) were quantified by weighing on a large scale and then aliquoted and freeze-dried for individual use. Acquired calorimetric titration curves were analyzed using Origin 7.0 (OriginLab) using the “One Set of Binding Sites” fitting model.

Substance | Kd [1] | Kd [2] [µM] | binding in histone peptide pulldown [3] | chemical shift perturbations in 1H,15N HSQC spectra [4] | binding in ITC, in words [5] | Kd ([5]; main text and Fig. 3e, ITC at 15 °C, N.D. = not detected, read-out: dissociation constant (KD)) [µM] | binding in ITC, in words ([5]; listed as H3K14ac)
H3K27ac: K27-acetylated H3 peptide: ITC text = H3 15–39K27ac; NMR = H3K27ac21–31; pulldown = biotinylated peptide; cited AF9/ENL peptides unspecified (ATKAARK(Ac)SAPA) | ~7 µM and 7 µM | 30 | bound specifically | global chemical shift perturbations | best binding substrate | 50 | 
TARKSTGGK(ac)A [H36-15K14ac, histone H3 peptide, residues 6-15, acetylated at K14] |  |  |  |  |  |  | weak or no binding; also recorded: no detectable binding
